Laboratory results reported in patent US20060263346A1, “Combined pharmaceutical preparations for the treatment of cancer, containing glutaminase and antineoplastic anthracyclines or platinum compounds” (priority 2003, published 2006).

What was measured:
Assay type in all cases: cell-based
lung tumor (A549) cells = test: Sulforhodamine in vitro cell growth test, lung tumor cells A549; details: 48 h
Procedure: (§1) Cell lines from tumors of the breast (MCF7), lung (NCI-H460, A549), colon (SW-60, HT29) and CNS (SF-539) were used for the test. The tumor cells were cultured in RPMI 1640 medium containing 7.5% foetal calf serum at 37° C. and 5% CO2. After the cells had grown for 24 hours, they were incubated with the substances to be tested for 48 hours.
(§2) The antineoplastic agents used for the experiments were obtained from Sigma in cell culture quality.
(§3) A Pseudomonas 7A glutaminase-asparaginase modified with polyethylene glycol (DE 41 40 003 A1, WO 94/13817 A1 and WO 02/31498 A2) was used as the glutaminase.
(§4) After a 48 hour incubation period cell growth was determined by means of the absorption of the bound sulforhodamine dye at 575 nm. The percentage growth was calculated as follows: [formula] in which PW denotes percentage growth, C denotes untreated control cells, T denotes the amount of treated cells and the indices 0 and t denote the amount of cells at time 0 and after 48 hours.

colon tumor (HT29) cells = test: Sulforhodamine in vitro cell growth test, colon tumor cells HT29; details: 2 μg/ml cis-platinum alone, 48 h
Procedure: as §1, §2, §3, §4

[1] = test system: breast tumor (MCF7) cells; test: Sulforhodamine in vitro cell growth test, breast tumor cells MCF7; details: 48 h
Procedure: as §1, §2, §3, §4

[2] = test system: lung tumor (NCI-H23) cells; test: Sulforhodamine in vitro cell growth test, lung tumor cells NCI-H23; details: 48 h
Procedure: as §1, §2, §3, §4

Compound: N.N.[Cl][Pt][Cl] [Cis-platinum, cis-platinum]
- tumor cell growth (lung tumor (A549) cells; 2 μg/ml cis-platinum alone): 41%
- tumor cell growth (colon tumor (HT29) cells): 65%
- tumor cell growth ([1]; 2 μg/ml cis-platinum alone): 86%

Compound: COc1cc([C@@H]2c3cc4c(cc3[C@@H](O[C@@H]3O[C@@H]5CO[C@@H](C)O[C@H]5[C@H](O)[C@H]3O)[C@H]3COC(=O)[C@H]23)OCO4)cc(OC)c1O [Etoposide, etoposide]
- growth compared to the control (lung tumor (A549) cells; 2.3 μg/ml etoposide alone): about 40%
- growth compared to the control ([2]; 2.3 μg/ml etoposide alone): about 40%
- growth compared to the control ([1]; 2.3 μg/ml etoposide alone): about 40%

Compound: N[C@@H](Cc1ccc(N(CCCl)CCCl)cc1)C(=O)O [Melphalan, melphalan]
- tumor growth ([2]; 68 μg/ml melphalan alone): 34%

Compound: CO[C@@]12[C@H](COC(N)=O)C3=C(C(=O)C(C)=C(N)C3=O)N1C[C@@H]1N[C@@H]12 [Mitomycin, mitomycin]
- growth compared to the control ([1]; 0.026 μg/ml mitomycin alone): 66%
